Test results: US8530508B2, “Thrombopoietin receptor agonist (TpoRA) kills acute human myeloid leukemia cells” (GlaxoSmithKline LLC, priority 2007, dated 2013)

Legend:
N2C-TPO cells = assay: Proliferation of TPO dependent cell line N2C-TPO; assay type: cell-based
Experimental: N2C-TPO cells were derived by culture of a megakaryblastic cell line in rhTpo for 10 weeks and provided by Glaxo SmithKline Pharmaceuticals (Collegeville, Pa.). N2C-TPO cells were cultured in RPMI (Invitrogen, Carlsbad, Calif.) medium supplemented with 10% Animal Serum Complex—Fetalplex (Gemini Bio-Products, West Sacramento, Calif.), 0.5% Penicillin/Streptomycin (Invitrogen; Carlsbad, Calif.) and 20 ng/ml rhTPO.
In order to determine if Compound A has the ability to function as a thrombopoietin receptor (TpoR) agonist and stimulate proliferation and differentiation of human megakaryocytes, a number of cell culture experiments were performed using the Tpo dependent cell line (N2C-TPO) as well as normal human CD34+ cells. […] Consequently the 5 μM dose was used in further experiments where properties of rhTPO versus Compound A were directly compared.

[1] = tested on: cells obtained from AML patients; assay: Rescue proliferation assay: rhTPO plus Compound A on AML cells; assay type: cell-based, human
Experimental: Proliferation assays were performed on cells obtained from 6 AML patients. In some experiments, cells were first exposed to Compound A and then stimulated with rhTPO five minutes later. To avoid the possibility of all receptors being occupied by Compound A and therefore preventing rhTPO from binding, other experiments were also performed by first stimulating the cells with rhTPO followed by exposure to Compound A 5 minutes later.

[2] = tested on: STAT5, ERK, p70S6, S6 ribosomal protein in human progenitor cells CD34+; assay: Western blot analysis of kinase phosphorylation in CD34+ cells; assay type: cell-based; conditions: rhTPO 2.8 μM or Compound A 5 μM
Experimental: (§1) Controls and cells stimulated with rhTPO or Compound A were washed twice in PBS, then pelleted. The pellet was dissolved in triple-lysis buffer comprised of 50 mM TRIS, 150 mM NaCl, 0.02% sodium azide, 0.1% sodium dodecyl sulphate (SDS) and 1% Igepal (Sigma, St. Louis, Mo.), and then incubated for 30 min on ice with vortexing every 10 min. The lysate was then spun at maximum speed in a microcentrifuge at 4° C. for 10 min. The extracted cell supernatant was used for Western-blot analysis.
(§2) Protein concentration was determined by a Bradford protein assay (Bio-Rad, Hercules, Calif.). A total of 150 μg protein extract was resolved on a 10% polyacrylamide gel (150V, 60 min.) then transferred to a poly vinylidene fluoride (PVDF) membrane (25V, 60 min). Condensed milk (5%) was used as a blocking solution. The membrane was incubated overnight at 4° C. with primary antibody at a 1:1000 dilution. After incubation, the membrane was washed three times in TBS-T buffer and probed with secondary HRP-conjugated antibody (Amersham Biosciences; Piscataway, N.J.) at dilution 1:1000 for 2 hour at room temperature. All antibodies were purchased from Cell Signaling Technology (Danvers, Mass.).
The effect of Compound A on phosphorylation of kinases known to be important in the Tpo signaling pathway was examined. Kinases evaluated include STAT5, ERK, p70S6, and ribosomal kinase S6. […] The same experiment was performed on human progenitor cells CD34+, which are stimulated by Compound A to differentiate into the megakaryocytes.

[3] = tested on: p70S6 kinase and ribosomal kinase S6 in primary AML cells; assay: Western blot of p70S6 and S6 kinase phosphorylation in primary AML cells; assay type: cell-based, human; conditions: primary AML samples, 3 hours; SB559457 5 μM, Tpo 2.86 μM
Experimental: as §1, §2
In an effort to establish a correlation between cell signaling and array data, phosphorylation of kinases involved in Tpo signaling pathway in primary leukemia cells was examined. […]

human CD34+ cells = assay: Megakaryocyte colony forming assay; assay type: cell-based; conditions: Compound A 5 μM vs rhTPO 100 ng/ml; fibrin clots, 10 days, CD41 stain
Experimental: Normal human progenitor cells were plated in fibrinogen clots at a density of 5000 CD34+ cells per ml. Fibrinogen clots were prepared as follow: cells were re-suspended in IMDM medium supplemented with sodium bicarbonate (3 mg/ml); 3-mercapto-1-2propanediol (0.002%); transferring (300 μg/ml); CaCl2(37 μg/ml); fatty acid free, deionized BSA (10%); insulin (20 μg/ml); cholesterol (5.6 μg/ml) cytokines: IL-3 (10 ng/ml), SCF (10 ng/ml) and rhTPO (100 ng/ml equal 2.8 μM) or Compound A (5 μM). Then clotting mix containing fibrinogen (0.2%) and thrombin (0.2 u/ml). Cells were plated on 35 mm culture dishes and cultured in humidified incubator at 37° C. and 5% CO2. After 10 days, colonies were fixed and stained for megakaryocyte marker CD41a with fluorescently labeled antibody. Megakaryocyte colonies were counted using inverted fluorescent microscope.
Normal human progenitor cells (CD34+) were used to evaluate capability of Compound A to stimulate proliferation and differentiation of megakaryocytes. CD34+ cells were plated in fibrin clots and cultured for 10 days, after which time colonies were fixed and stained with antibody specific for megakaryocytic marker CD41. […]

[4] = tested on: STAT5, ERK, p70S6, ribosomal kinase S6 in N2C-TPO cells; assay: Western blot analysis of kinase phosphorylation in N2C-TPO cells; assay type: cell-based; conditions: 10 or 30 minutes
Experimental: as §1, §2
The effect of Compound A on phosphorylation of kinases known to be important in the Tpo signaling pathway was examined. Kinases evaluated include STAT5, ERK, p70S6, and ribosomal kinase S6. […]

CD34+ cells = assay: Liquid culture of human progenitor cells (polyploidization, CD41/CD61 expression); assay type: cell-based; conditions: CD34+ cells in cytokines, 7-10 days
Experimental: Normal human progenitor cells (CD34+) were used to evaluate capability of Compound A to stimulate proliferation and differentiation of megakaryocytes. CD34+ cells were plated in fibrin clots and cultured for 10 days, after which time colonies were fixed and stained with antibody specific for megakaryocytic marker CD41. […] CD34+ cells were incubated in cytokines with rhTPO or Compound A for periods of 7-10 days, after which time cells in culture were examined for degree of polyploidization, and expression of megakaryocyte lineage markers CD41 and CD61.

[5] = tested on: primary cells from AML patient 774; assay: Annexin V / propidium iodide apoptosis assay, primary AML cells; assay type: cell-based, human; conditions: AML patient 774, 72 hours; vs control and Tpo+DMSO
Excerpt: (§3) Annexin-V is a phospholipid binding protein with a high affinity for phosphatidylserine (PS). Annexin V will not bind normal, intact cells, but necrotic cells are leaky enough to give Annexin V access to inner membrane PS. Propidium iodide stains DNA. The assay therefore identifies cells undergoing apoptosis.
(§4) Primary cells were isolated from either an AML (patient 774; top row) or ALL (patient 710; bottom row) patient. The cells were then exposed to either control solution (left pair of panels), rhTpo+DMSO (middle pair of panels), or SB559457 (right pair of panels) for 72 hours.

[6] = tested on: STAT5, ERK, p70S6 kinases and S6 ribosomal protein in N2C-TPO cells; assay: Rescue of kinase phosphorylation in N2C-TPO cells (rhTPO plus Compound A); assay type: cell-based; conditions: rhTPO first then Compound A, or the reverse
Experimental: as §1, §2
In an effort to address these possibilities, similar rescue experiments were performed on N2C-TPO cells while evaluating phosphorylation of kinases involved in TPO pathway.

[7] = tested on: primary cells from patients with chronic myelogenous leukemia (CML); assay: Proliferation of primary CML cells; assay type: cell-based, human; conditions: CML patient samples
Experimental: (§5) Human primary leukemia cells were obtained from Stem Cell and Leukemia Core at the University of Pennsylvania. Cells were cultured in EGM-2 (Endothelial Cell Medium-2, Cambrex; East Rutherford, N.J.). All cells were cultured in humidified incubator at 37° C. and 5% CO2.
(§6) Samples were obtained from 18 patients with acute myelogenous leukemia (AML), 7 patients with acute lymphocytic leukemia (ALL) and 3 patients with chronic myelogenous leukemia (CML). In 17 out of 18 tested AML samples, Compound A inhibited cell proliferation 70-90% when compared to untreated controls or cells cultured with rhTPO (FIG. 2A).

[8] = tested on: GAPDH and Redd1 mRNA in primary AML cells; assay: Quantitative real time PCR of GAPDH and Redd1 in primary AML cells; assay type: cell-based, human; conditions: primary AML samples, 6 hours, QRT-PCR
[9] = tested on: primary leukemia cells from patients with acute myelogenous leukemia (AML); assay: Proliferation of primary AML cells; assay type: cell-based, human
Experimental: as §5, §6
Further the effect of various doses of Compound A (1 μM, 2.5 μM and 5 μM) on AML samples was examined. This experiment was performed on 6 different samples. […] In the remaining 3 samples, doses of 1 μM and 2.5 μM Compound A had no effect on cell proliferation and survival.

[10] = tested on: primary cells from patients with acute lymphocytic leukemia (ALL); assay: Proliferation of primary ALL cells; assay type: cell-based, human; conditions: ALL patient samples
Experimental: as §5, §6

[11] = tested on: primary cells from ALL patient 710; assay: Annexin V / propidium iodide apoptosis assay, primary ALL cells; assay type: cell-based, human; conditions: ALL patient 710, 72 hours
Excerpt: as §3, §4

Compound	concentration of maximal effects on cell proliferation (N2C-TPO cells) [µM]	rescue of AML cell survival by rhTPO ([1]; samples 794 and 332, rhTPO added with Compound A)	rescue of AML cell survival by rhTPO ([1]; samples 857, 774, 759, 342, rhTPO added 5 minutes before or after Compound A)	ERK, p70S6 and S6 ribosomal protein phosphorylation [2]	phosphorylation of STAT5 [2]	phosphorylation of p70S6 kinase at Thr421/Ser424 and ribosomal kinase S6 [3]	number of megakaryocyte colonies compared to rhTPO (human CD34+ cells)	phosphorylation of STAT5, ERK, p70S6 and ribosomal kinase S6 [4]	cells expressing megakaryocyte markers CD41 and CD61 (CD34+ cells) [%]	cells with greater than 4N DNA content (CD34+ cells) [%]	Annexin V and PI positive cells (apoptosis) [5]	phosphorylation of STAT5, ERK, p70S6 kinases and S6 ribosomal protein with rhTPO plus Compound A [6]	effect on cell proliferation / growth or viability [7]	expression of GAPDH relative to cells treated with rhTpo [8]	effect on cell proliferation and survival ([9]; 1 μM and 2.5 μM, remaining 3 of 6 AML samples)	leukemia cell growth and proliferation ([9]; 5 μM, remaining 3 of 6 AML samples)	effect on cell proliferation ([9]; 1 and 2.5 μM, 3 of 6 AML samples)	inhibition of cell proliferation ([9]; 17 out of 18 AML samples, vs untreated controls or cells cultured with rhTPO)	effect on cell proliferation / growth or viability [10]	cellular apoptosis [11]
CC1=NN(c2ccc(C)c(C)c2)C(=O)/C1=N\Nc1cc(F)cc(-c2cccc(C(=O)O)c2)c1O [Compound A, 3′-{N′-[1-(3,4-dimethylphenyl)-3-methyl-5-oxo-1,5-dihydropyrazol-4-ylidene]hydrazine}-5′-fluoro-2′-hydroxybiphenyl-3-carboxylic acid]	5 to 10	adding rhTPO did attenuate the Compound A effect	not rescued	activation	only cells exposed to rhTPO	high phosphorylation	slightly lower	none of those kineses were activated	35	14	increase in Annexin V and PI positive cells	rescue of phosphorylation	No significant effects	at least two times higher	no effect	inhibited leukemia cell growth and proliferation	had an effect on cell proliferation	70-90%	No significant effects	No significant increases in cellular apoptosis
rhTPO: Full length recombinant human thrombopoietin (rhTPO) obtained from R&D Systems	–	–	–	activation	stimulated phosphorylation of STAT5	none or very little phosphorylation	–	high phosphorylation level	–	8	–	–	–	–	–	–	–	–	–	–
